Values after ≈ are worked out from the molar mass of the structure shown. One block for each compound: values may come before it.
Legend:
Staphylococcus aureus [1] = assay: Minimum inhibition concentration against Staphylococcus aureus strains in presence of 4% calf serum; format: functional
Haemophilus influenzae = assay: Minimum inhibition concentration against Haemophilus influenzae strains; format: functional
Staphylococcus aureus [2] = assay: Minimum inhibition concentration against Staphylococcus aureus strains in presence of 1% calf serum; format: functional
Staphylococcus aureus [3] = assay: Minimum inhibition concentration against Staphylococcus aureus strains in presence of 32% calf serum; format: functional
Staphylococcus aureus [4] = assay: Minimum inhibition concentration against Staphylococcus aureus strains in presence of 8% calf serum; format: functional
[5] = Half life for compound in mouse was determined; format: ADME; settings: in vivo
[6] = Protective dose against Staphylococcus aureus in mice after 8 days of oral b.i.d. administration at 1 and 5 hr per interval (n=10); format: functional; settings: read-out: PD50
[7] = Area under curve concentration in mouse was determined; format: ADME; settings: in vivo
[8] = Maximum serum concentration in mouse was determined; format: ADME, organism-based
Staphylococcus aureus [9] = assay: Minimum inhibition concentration against Staphylococcus aureus strains in presence of 0.5% calf serum; format: functional
[10] = Half life for compound in rat was determined; format: ADME; settings: in vivo
[11] = Maximum serum concentration in rat was determined; format: ADME, organism-based
Staphylococcus aureus [12] = assay: Minimum inhibition concentration against Staphylococcus aureus strains in presence of 16% calf serum; format: functional
Staphylococcus aureus [13] = assay: Minimum inhibition concentration against Staphylococcus aureus strains in presence of 2% calf serum; format: functional
Staphylococcus aureus [14] = assay: Minimum inhibition concentration against Staphylococcus aureus strains in presence of 0.25% calf serum; format: functional
Staphylococcus aureus [15] = assay: Minimum inhibition concentration against Staphylococcus aureus strains in presence of >64% calf serum; format: functional

MIC (Staphylococcus aureus [1]): 1 µg/mL
MIC (Haemophilus influenzae): 32 µg/mL (≈ 96.8 µM)
SMILES: CC(=O)NCn1cc(-c2ccc(C3=CCSCC3)cc2)c(=O)o1

MIC (Staphylococcus aureus [2]): 0.5 µg/mL
MIC (Haemophilus influenzae): 64 µg/mL (≈ 187 µM)
SMILES: CC(=O)NCn1cc(-c2ccc(-c3sccc3C=O)cc2)c(=O)o1

MIC (Haemophilus influenzae): > 32 µg/mL
MIC (Staphylococcus aureus [3]): 1 µg/mL
MIC (Staphylococcus aureus [3]; Staphylococcus aureus): 1 µg/mL
SMILES: CC(=O)NCn1cc(-c2ccc(-c3cccc4ccccc34)cc2)c(=O)o1

MIC (Staphylococcus aureus [2]): 0.25 µg/mL
MIC (Haemophilus influenzae): 4 µg/mL (≈ 12.7 µM)
SMILES: CC(=O)NCn1cc(-c2ccc(C3=CCOCC3)cc2)c(=O)o1

SMILES: CC(=O)NCn1cc(-c2ccc(C3=CCNCC3)cc2)c(=O)o1
MIC (Staphylococcus aureus [4]): 8 µg/mL
MIC (Haemophilus influenzae): 16 µg/mL (≈ 51.1 µM)

SMILES: CC(=O)NCn1cc(-c2ccc(C3=CCN(C(=O)CO)CC3)cc2)c(=O)o1
half-life [5]: 23.5 min
ED50 [6]: 4 mg/kg/day
AUC [7]: 16.9 µg/h/mL
Cmax [8]: 22900 ng/mL
MIC (Staphylococcus aureus [9]): 0.25 µg/mL
MIC (Haemophilus influenzae): 2 µg/mL (≈ 5.39 µM)
half-life [10]: 36 min
Cmax [11]: 1900 ng/mL

MIC (Staphylococcus aureus [12]): 8 µg/mL
MIC (Haemophilus influenzae): 32 µg/mL (≈ 77 µM)
SMILES: CC(=O)NCn1cc(-c2ccc(C3CCN(C(=O)OC(C)(C)C)CC3)cc2)c(=O)o1

MIC (Haemophilus influenzae): > 64 µg/mL
MIC (Staphylococcus aureus [3]; Staphylococcus aureus): 8 µg/mL
SMILES: CC(=O)NCn1cc(-c2ccc(C3=CCN(C(=O)OC(C)(C)C)CC3)cc2)c(=O)o1

MIC (Staphylococcus aureus [12]): 32 µg/mL
MIC (Haemophilus influenzae): 32 µg/mL (≈ 101 µM)
SMILES: CC(=O)NCn1cc(-c2ccc(C3CCNCC3)cc2)c(=O)o1

MIC (Staphylococcus aureus [4]): 0.06 µg/mL
MIC (Haemophilus influenzae): 4 µg/mL (≈ 11.5 µM)
SMILES: CC(=O)NCn1cc(-c2ccc(-c3ccc(Cl)s3)cc2)c(=O)o1

SMILES: CC(=O)NCn1cc(-c2ccc(C3CCN(C(=O)CO)CC3)cc2)c(=O)o1
ED50 [6]: > 3.5 mg/kg/day
MIC (Staphylococcus aureus [13]): 1 µg/mL
MIC (Haemophilus influenzae): 16 µg/mL (≈ 42.8 µM)

SMILES: CC(=O)NCn1cc(-c2ccc(C3=CC[S+]([O-])CC3)cc2)c(=O)o1 (stereo unspecified)
half-life [5]: 22.2 min
ED50 [6]: 5.6 mg/kg/day
AUC [7]: 5.5 µg/h/mL
MIC (Staphylococcus aureus [2]): 0.5 µg/mL
Cmax [8]: 8300 ng/mL
MIC (Haemophilus influenzae): 2 µg/mL (≈ 5.77 µM)

MIC (Staphylococcus aureus [12]): 8 µg/mL
MIC (Haemophilus influenzae): 32 µg/mL (≈ 90 µM)
SMILES: CC(=O)NCn1cc(-c2ccc(C3=CCN(C(=N)N)CC3)cc2)c(=O)o1

SMILES: CC(=O)NCn1cc(-c2ccc(C3=CCS(=O)(=O)CC3)cc2)c(=O)o1
half-life [5]: 12.2 min
ED50 [6]: 4 mg/kg/day
AUC [7]: 19.4 µg/h/mL
MIC (Staphylococcus aureus [2]): 0.5 µg/mL
Cmax [8]: 17700 ng/mL
MIC (Haemophilus influenzae): 4 µg/mL (≈ 11 µM)

SMILES: CC(=O)NCn1cc(-c2ccc(-c3cncnc3)cc2)c(=O)o1
half-life [5]: 103 min
ED50 [6]: > 14.1 mg/kg/day
MIC (Staphylococcus aureus [14]): 0.25 µg/mL
AUC [7]: 29.1 µg/h/mL
Cmax [8]: 10400 ng/mL
MIC (Haemophilus influenzae): 4 µg/mL (≈ 12.9 µM)

MIC (Haemophilus influenzae): 16 µg/mL (≈ 53.6 µM)
MIC (Staphylococcus aureus [3]; Staphylococcus aureus): 1 µg/mL
SMILES: CC(=O)NCn1cc(-c2ccc(-c3ccco3)cc2)c(=O)o1

MIC (Staphylococcus aureus [13]): 1 µg/mL
MIC (Haemophilus influenzae): 8 µg/mL (≈ 24.7 µM)
SMILES: CC(=O)NCn1cc(-c2ccc(-c3ccc(O)cc3)cc2)c(=O)o1

MIC (Staphylococcus aureus [15]): 32 µg/mL
MIC (Haemophilus influenzae): 64 µg/mL (≈ 173 µM)
SMILES: CC(=O)NCn1cc(-c2ccc(-c3ccc(F)c(C(=O)O)c3)cc2)c(=O)o1

MIC (Staphylococcus aureus [1]): 0.25 µg/mL
MIC (Haemophilus influenzae): > 64 µg/mL
SMILES: CC(=O)NCn1cc(-c2ccc(-c3cc(C)cs3)cc2)c(=O)o1

MIC (Staphylococcus aureus [1]): 0.125 µg/mL
MIC (Haemophilus influenzae): 4 µg/mL (≈ 11.6 µM)
SMILES: CC(=O)NCn1cc(-c2ccc(-c3ccc(F)cc3F)cc2)c(=O)o1

SMILES: CC(=O)NCn1cc(-c2ccc(-c3ccncc3)cc2)c(=O)o1
half-life [5]: 203 min
ED50 [6]: 8.9 mg/kg/day
AUC [7]: 56 µg/h/mL
Cmax [8]: 17700 ng/mL
MIC (Staphylococcus aureus [9]): 0.06 µg/mL
MIC (Haemophilus influenzae): 2 µg/mL (≈ 6.47 µM)

MIC (Staphylococcus aureus [2]): 0.06 µg/mL
MIC (Haemophilus influenzae): > 64 µg/mL
SMILES: COc1cccc(-c2ccc(-c3cn(CNC(C)=O)oc3=O)cc2)c1

MIC (Staphylococcus aureus [12]): 0.5 µg/mL
MIC (Haemophilus influenzae): > 32 µg/mL
SMILES: CC(=O)NCn1cc(-c2ccc(-c3ccc(OC(F)(F)F)cc3)cc2)c(=O)o1

MIC (Staphylococcus aureus [13]): 1 µg/mL
MIC (Haemophilus influenzae): 8 µg/mL (≈ 25.9 µM)
SMILES: CC(=O)NCn1cc(-c2ccc(-c3ccccn3)cc2)c(=O)o1

MIC (Staphylococcus aureus [4]): 2 µg/mL
MIC (Haemophilus influenzae): > 32 µg/mL
SMILES: COc1ccc(-c2ccc(-c3cn(CNC(C)=O)oc3=O)cc2)c(OC)c1

MIC (Staphylococcus aureus [1]): 0.5 µg/mL
MIC (Haemophilus influenzae): 4 µg/mL (≈ 12.7 µM)
SMILES: CC(=O)NCn1cc(-c2ccc(-c3cncs3)cc2)c(=O)o1

SMILES: CC(=O)NCn1cc(-c2ccc(-c3cccnc3)cc2)c(=O)o1
half-life [5]: 86.7 min
ED50 [6]: 10 mg/kg/day
AUC [7]: 41.1 µg/h/mL
Cmax [8]: 15300 ng/mL
MIC (Staphylococcus aureus [1]): 0.5 µg/mL
MIC (Haemophilus influenzae): 2 µg/mL (≈ 6.47 µM)

MIC (Staphylococcus aureus [4]): 2 µg/mL
MIC (Haemophilus influenzae): > 64 µg/mL
SMILES: CC(=O)NCn1cc(-c2ccc(-c3c(C)noc3C)cc2)c(=O)o1

MIC (Staphylococcus aureus [15]): 32 µg/mL
MIC (Haemophilus influenzae): 64 µg/mL (≈ 181 µM)
SMILES: CC(=O)NCn1cc(-c2ccc(-c3cncc(C(=O)O)c3)cc2)c(=O)o1
